Reference: article PMC3914891, “Pentacyclic Nitrofurans with In Vivo Efficacy and Activity against Nonreplicating Mycobacterium tuberculosis” (PLoS ONE, 2014)
Values after ≈ are worked out from the molar mass of the structure shown. Like-named read-outs stand apart in the source and are kept apart here.

Key:
[1] = system: M. tuberculosis strain H37Rv; assay: Checkerboard synergy assay; assay type: cell-based, Mycobacterium tuberculosis; settings: for MIC: Mycobacterium tuberculosis, H37RV, 168 h, read-out: MIC Alone
M. tuberculosis H37Rv = assay: Minimum bactericidal concentration determination; assay type: cell-based, Mycobacterium tuberculosis
[2] = In vitro cytotoxicity against Vero cells; settings: African green monkey, Vero cells (kidney epithelial cells, ATCC CCL-81)
in vitro [3] = settings: mouse, plasma
in vitro [4] = settings: mouse, microsomes
M. tuberculosis = assay: MIC determination, microbroth dilution, M. tuberculosis; assay type: cell-based, Mycobacterium tuberculosis; settings: Mycobacterium tuberculosis
[5] = system: Enterococcus faecalis (ATCC 33186); assay: MIC, spectrum of activity: E.f.; assay type: cell-based; settings: ATCC33186, read-out: Minimum Inhibitory Concentration, E.f.
[6] = system: Escherichia coli (ATCC 700926); assay: MIC, spectrum of activity: E.c.; assay type: cell-based; settings: ATCC700926, read-out: Minimum Inhibitory Concentration, E.c.
[7] = system: Bacillus anthracis sterne 34F2; assay: microbe, parasite or virus in culture; assay type: cell-based; settings: STERNE34F2, read-out: Minimum Inhibitory Concentration, B.a.
[8] = system: Staphylococcus aureus (NRS70); assay: MIC, spectrum of activity: MRSA; assay type: cell-based; settings: read-out: Minimum Inhibitory Concentration, MRSA
[9] = system: Burkholderia cepacia (ATCC 25416); assay: MIC, spectrum of activity: B.c.; assay type: cell-based; settings: ATCC25416, read-out: Minimum Inhibitory Concentration, B.c.
Vero cells = assay: In vitro cytotoxicity against Vero cells
[10] = system: Streptococcus pneumoniae (R6); assay: MIC, spectrum of activity: S.pn; assay type: cell-based; settings: read-out: Minimum Inhibitory Concentration, S. Pn.
[11] = system: Streptococcus pyogenes (ATCC 700294); assay: MIC, spectrum of activity: S.py; assay type: cell-based; settings: ATCC700294, read-out: Minimum Inhibitory Concentration, S. Py.
E. coli K12 ∆tolC = assay type: cell-based; settings: E. coli K12 ∆tolC (efflux pump deficient)
physchem = settings: pH 7.4, aqueous buffer
[12] = system: Bacillus subtilis (ATCC 23857); assay: MIC, spectrum of activity: B.s.; assay type: cell-based; settings: ATCC23857, read-out: Minimum Inhibitory Concentration, B.s.
[13] = system: Staphylococcus aureus (ATCC 29213); assay: MIC, spectrum of activity: S.a.; assay type: cell-based; settings: ATCC29213, read-out: Minimum Inhibitory Concentration, S.a
[14] = system: Stenotrophomonas maltophilia (ATCC 13637); assay: MIC, spectrum of activity: S.m.; assay type: cell-based; settings: ATCC13637, read-out: Minimum Inhibitory Concentration, S.m.

Row | SMILES | FICI with 9a [1] | MIC in presence of 9a [1] | Type of Interaction [1] | MIC [1] | IC50 [2] | fraction unbound (in vitro [3]) | half-life (in vitro [4]) | MIC (M. tuberculosis; 168 h, read-out: M. tb. MIC) | MIC [5] | MIC [6] | MIC [7] | MIC [8] | MIC [9] | Selective Index (Cytox/MIC) (Vero cells) | MIC [10] | MIC [11] | Minimum Inhibitory Concentration, E.c. ΔtolC (E. coli K12 ∆tolC) | solubility (physchem) | MIC [12] | MIC [13] | further results
1 | [H]/N=C(/N)N[C@H]1[C@H](O)[C@@H](O)[C@H](O[C@@H]2O[C@@H](C)[C@](O)(C=O)[C@H]2O[C@@H]2O[C@@H](CO)[C@H](O)[C@@H](O)[C@@H]2NC)[C@@H](N/C(N)=N\[H])[C@@H]1O [Streptomycin] | 0.75 | 0.4 to 0.8 µg/mL | Indifference (key: Synergy: synergy (FICI ≤0.5); Indifference: indifference (FICI >0.5–4.0); Antagonism: antagonism (FICI >4.0)) | 1.6 µg/mL |  |  |  |  |  |  |  |  |  |  |  |  |  |  |  |  | Classification (M. tuberculosis H37Rv): Cidal (key: Cidal: cidal (MBC/MIC ≤4); Static: static (MBC/MIC >4)); MBC (M. tuberculosis H37Rv): 3.13–6.25; MBC/MIC (M. tuberculosis H37Rv): ≤ 4
2 | C[C@]1(COc2ccc(N3CCC(Oc4ccc(OC(F)(F)F)cc4)CC3)cc2)Cn2cc([N+](=O)[O-])nc2O1 [OPC-67683] |  |  |  |  | 107 µg/mL (≈ 200 µM) | 0.002 | 27.2 h | 0.01 µg/mL |  |  |  |  |  |  |  |  |  |  |  |  | MIC (M. tuberculosis; M. tuberculosis, […], read-out: MIC): 0.019 µM; MBC (M. tuberculosis H37Rv): >3; Classification (M. tuberculosis H37Rv; cidal or static from MBC versus MIC): Static (static (MBC/MIC >4))
3 | O=[N+]([O-])c1ccc(C2=NOC(c3ccc(N4CCC(Oc5ccc(F)cc5)CC4)c(F)c3)C2)o1 (stereo not shown) [Compound 9f, 5-(3-Fluoro-4-(4-(4-fluorophenoxy)piperidin-1-yl)phenyl)-3-(5-nitrofuran-2-yl)-4,5-dihydroisoxazole] |  |  |  |  | 8 µg/mL (≈ 17 µM) | 0.002 | 1.74 h | 0.012 µg/mL | 6.3 µg/mL (≈ 13.4 µM) | > 200 µg/mL | > 200 µg/mL | 12.5 µg/mL (≈ 26.6 µM) | 12.5 µg/mL (≈ 26.6 µM) | 667 | 25 µg/mL (≈ 53.3 µM) | 50 µg/mL (≈ 107 µM) | 12.5 µg/mL | 0.8 µg/mL (≈ 1.7 µM) | 25 µg/mL (≈ 53.3 µM) | 3.13 µg/mL (≈ 6.67 µM) | MIC [14]: > 200 µg/mL
4 | O=[N+]([O-])c1ccc(C2=NOC(c3ccc(N4CCC(Oc5ccc(F)cc5)CC4)cc3)C2)o1 (stereo not shown) [Compound 9d, 5-(4-(4-(4-Fluorophenoxy)piperidin-1-yl)phenyl)-3-(5-nitrofuran-2-yl)-4,5-dihydroisoxazole] |  |  |  |  | 14.7 µg/mL (≈ 32.6 µM) | 0.009 | 1.43 h | 0.012 µg/mL | > 200 µg/mL | > 200 µg/mL | > 200 µg/mL | 100 µg/mL (≈ 222 µM) | 50 µg/mL (≈ 111 µM) | 1225 | > 200 µg/mL | > 200 µg/mL | >200 µg/mL | 0.7 µg/mL (≈ 1.55 µM) | 100 µg/mL (≈ 222 µM) | 6.3 µg/mL (≈ 14 µM) | MIC [14]: 6.3 µg/mL (≈ 14 µM)
5 | CC(=O)NC[C@H]1CN(c2ccc(N3CCOCC3)c(F)c2)C(=O)O1 [Linezolid] | 1.00 | 0.8 µg/mL | Indifference (key: Synergy: synergy (FICI ≤0.5); Indifference: indifference (FICI >0.5–4.0); Antagonism: antagonism (FICI >4.0)) | 1.6 µg/mL |  |  |  |  |  |  |  |  |  |  |  |  |  |  |  |  | 
6 | O=[N+]([O-])c1ccc(C2=NOC(c3ccc(N4CCC(Oc5ccc(F)cc5)CC4)nc3)C2)o1 (stereo not shown) [Compound 9e, 5-(6-(4-(4-Fluorophenoxy)piperidin-1-yl)pyridin-3-yl)-3-(5-nitrofuran-2-yl)-4,5-dihydroisoxazole] |  |  |  |  | 7.5 µg/mL (≈ 16.6 µM) | 0.002 | 1.93 h | 0.002 µg/mL | 50 µg/mL (≈ 111 µM) | > 200 µg/mL | > 200 µg/mL | 50 µg/mL (≈ 111 µM) | 50 µg/mL (≈ 111 µM) | 3750 | > 200 µg/mL | > 200 µg/mL | >200 µg/mL | 2.2 µg/mL (≈ 4.86 µM) | 50 µg/mL (≈ 111 µM) | > 200 µg/mL | MIC [14]: 6.3 µg/mL (≈ 13.9 µM)
7 | CC[C@@H](CO)NCCN[C@@H](CC)CO [Ethambutol] | 0.75–1.00 | 0.8 µg/mL | Indifference (key: Synergy: synergy (FICI ≤0.5); Indifference: indifference (FICI >0.5–4.0); Antagonism: antagonism (FICI >4.0)) | 1.6 µg/mL |  |  |  |  |  |  |  |  |  |  |  |  |  |  |  |  | 
